Where a name gives a salt, the structure may show the parent alone.

The subject of one experiment is HepG2 cells originating from human liver cancer. In words: EPO production in HepG2 cells (EPO ELISA of culture supernatant, 4% oxygen, 48 hrs). The experiment is classed as cell-based. As to conditions: test compound 3 μM, oxygen 4%, non-stimulated state = 100%, read-out: EPO production amount, % of control (3 μM). How it is done:
HepG2 cells originating from human liver cancer were seeded at a density of 1×10^4 cells per well on a 24-well plate by using minimum essential medium (MEM, manufactured by Sigma) comprising 10% bovine fetal serum. Next day, the medium was exchanged with Dulbecco's modified eagle medium (DMEM, manufactured by Sigma) comprising 10% bovine fetal serum lacking phenol red. Then, the test compound dissolved in DMSO was added thereto to obtain the final concentration of 3 μM or 10 μM while having 400 μl of the medium per well. The cells were incubated for 48 hrs in a CO2 incubator which had been adjusted to have oxygen concentration of 4%, followed by collecting the culture supernatant. The EPO concentration in the culture supernatant was immediately measured by using EPO ELISA kit (manufactured by Roche Diagnostics K.K.). Specific procedures were carried out according to the manufacturer's protocol included in the kit.
When EPO production amount in non-stimulated state, i.e., without addition of any compound, was 100%, the EPO production amount induced by each compound was calculated (% of control).
A general note: An ELISA detects its analyte on a solid surface through an enzyme-linked reagent.
In the case of `CC(=O)N1c2ccccc2C(Oc2ccc(N3CCOCC3)cc2)CC1C` (centres unmarked) [Compound 55, 1-acetyl-4-(4-morpholinophenoxy)-2-methyl-1,2,3,4-tetrahydroquinoline], the activity at 3 µM is 134%.
For the compound `CC(=O)N1c2ccc(N3CCN(C(=O)C(C)C)CC3)cc2C(Nc2ccc(NS(C)(=O)=O)cc2)CC1C` (centres unmarked) [Compound 111, 1-acetyl-6-[(4-isopropylcarbonyl)piperazino]-4-[(4-methanesulfonylaminophenyl)amino]-2-methyl-1,2,3,4-tetrahydroquinoline], the activity at 3 µM was found to be 126%.
Still for that read-out and setting: the value for `CC(=O)N1c2ccc(-c3nnn[nH]3)cc2C(Nc2ccc(Cl)cc2)CC1C` (centres unmarked) [Compound 119, 1-acetyl-4-[(4-chlorophenyl)amino]-2-methyl-6-(1H-tetrazol-5-yl)-1,2,3,4-tetrahydroquinoline] was 125%; that for `CC(=O)N1c2cc(N3CCOCC3)ccc2C(Nc2ccc(Cl)cc2)CC1C` (centres unmarked) [Compound 44, 1-acetyl-4-[(4-chlorophenyl)amino]-2-methyl-7-morpholino-1,2,3,4-tetrahydroquinoline] was 301%; that for `CCOC(=O)Cc1ccc(NC2CC(C)N(C(C)=O)c3ccc(F)cc32)cc1` (centres unmarked) [Compound 122, 1-acetyl-4-[(4-ethoxycarbonylmethylphenyl)amino]-6-fluoro-2-methyl-1,2,3,4-tetrahydroquinoline] was 139%.
As to `CC(=O)N1c2ccccc2C(Nc2ccc(O)cc2)CC1C` (stereo not drawn) [Compound 24, cis-1-acetyl-4-[(4-hydroxyphenyl)amino]-2-methyl-1,2,3,4-tetrahydroquinoline.hydrochloride], the activity at 3 µM is 117%.
On to `CC(=O)N1c2ccc(N3CCN(C(C)C)CC3)cc2C(Nc2ccc(Cl)cc2)CC1C` (centres unmarked) [Compound 81, 1-acetyl-4-[(4-chlorophenyl)amino]-6-[(4-isopropyl)piperazino]-2-methyl-1,2,3,4-tetrahydroquinoline], for which the activity at 3 µM came to 234%.
For `CC(=O)N1c2ccc(C(N)=O)cc2C(Nc2ccc(Cl)cc2)CC1C` (centres unmarked) [Compound 43, 1-acetyl-4-[(4-chlorophenyl)amino]-2-methyl-1,2,3,4-tetrahydroquinoline-6-carboxamide], the activity at 3 µM came to 452%.
On the same count and under the same terms, to `CC(=O)N1c2ccccc2C(Nc2cccc(C)c2)CC1C` (centres unmarked) [Compound 50, 1-acety1-4-[(3-methylphenyl)amino]-2-methyl-1,2,3,4-tetrahydroquinoline] belongs 289%; to `CCOC(=O)Cc1ccc(NC2CC(C)N(C(C)=O)c3ccccc32)cc1` (centres unmarked) [Compound 70, 1-acetyl-4-[(4-ethoxycarbonylmethylphenyl)amino]-2-methyl-1,2,3,4-tetrahydroquinoline], 165%; to `CC(=O)N1c2ccc(N3CCN(S(C)(=O)=O)CC3)cc2C(Nc2ccc(Cl)cc2)CC1C` (centres unmarked) [Compound 80, 1-acetyl-6-[(4-methanesulfonyl)piperazino]-4-[(4-chlorophenyl)amino]-2-methyl-1,2,3,4-tetrahydroquinoline], 219%.
As for `CC(=O)N1c2ccccc2C(Nc2ccc(C)cc2)CC1C` (centres unmarked) [Compound 51, 1-acety1-4-[(4-methylphenyl)amino]-2-methyl-1,2,3,4-tetrahydroquinoline], the activity at 3 µM came out at 239%.
The same measure, in the same setting: the value for `CC(=O)N1c2ccccc2C(Nc2ccc(C(F)(F)F)cc2)CC1C` (centres unmarked) [Compound 52, 1-acetyl-2-methyl-4-[(4-trifluoromethylphenyl)amino]-1,2,3,4-tetrahydroquinoline] was 314%; that for `CC(=O)N1c2ccc(C)cc2C(Nc2ccc(C)cc2)CC1C` (centres unmarked) [Compound 2, 1-acetyl-2,6-dimethyl-4-[(4-methylphenyl)amino]-1,2,3,4-tetrahydroquinoline] was 167%; that for `CONC(=O)c1ccc2c(c1)C(Nc1ccc(Cl)cc1)CC(C)N2C(C)=O` (centres unmarked) [Compound 118, 1-acetyl-4-[(4-chlorophenyl)amino]-N-methoxy-2-methyl-1,2,3,4-tetrahydroquinoline-6-carboxamide.hydrochloride] was 138%.
`CC(=O)N1c2ccc(C#N)cc2C(Nc2ccc(Cl)cc2)CC1C` (centres unmarked) [Compound 117, 1-acetyl-4-[(4-chlorophenyl)amino]-6-cyano-2-methyl-1,2,3,4-tetrahydroquinoline]: the activity at 3 µM came to 204%.
Same read-out and setting: the value for `CC(=O)N1c2ccccc2C(Nc2ccc(-c3ccccc3)cc2)CC1C` (centres unmarked) [Compound 25, 1-acetyl-2-methyl-4-[(1,1′-biphenyl-4-yl)amino]-1,2,3,4-tetrahydroquinoline] was 242%; that for `CC(=O)N1c2ccc(F)cc2C(Nc2ccc(CC(=O)O)cc2)CC1C` (centres unmarked) [Compound 123, 1-acetyl-4-[(4-carboxymethylphenyl)amino]-6-fluoro-2-methyl-1,2,3,4-tetrahydroquinoline] was 142%; that for `CC(=O)N1c2ccccc2C(Nc2ccccc2C)CC1C` (centres unmarked) [Compound 49, 1-acetyl-4-[(2-methylphenyl)amino]-2-methyl-1,2,3,4-tetrahydroquinoline] was 271%.

Another experiment concerns K562 cells, human proerythroblast cells. Nature of the experiment: Hemoglobin production in K562 cells (fluorescence of the porphyrin ring). The note with it: 144 h, test compound 6 μM, 3+3 days, non-stimulated state = 100%, read-out: production amount of hemoglobin, % of control (6 μM). The class given is cell-based. The protocol:
K562 cells (obtained from ATCC), which are human proerythroblast cells, were seeded at a density of 1×10^5 cells/1 mL on a 24-well plate by using complete medium (RPMI-1640 medium comprising 10% bovine fetal serum). After adding the test compound having 1000× concentration (1 μL), the cells were incubated for three days in a CO2 incubator (37° C., 5% CO2). After exchanging the medium, the cells were further incubated for three days. Then, the cells were collected and counted. After adjusting them to have 3×10^5 cells, the amount of hemoglobin produced in the cells was determined by measuring fluorescence of the porphyrin ring. Specifically, the cells which had been collected by centrifugation were suspended in 2 M oxalic acid solution (500 μL) and boiled for 30 minutes under heating. After cooling the cells, the fluorescence intensity was measured by Fluorescence micro plate reader (Spectra MAX GeminiEM, manufactured by Molecular Devices Corporation) ([…]). When hemoglobin amount in non-stimulated state, i.e., without addition of any compound, was 100%, the production amount of hemoglobin induced by each compound was calculated (% of control).
`CC(=O)N1c2ccc(N3CCN(C(=O)C(C)C)CC3)cc2C(Nc2ccc(NS(C)(=O)=O)cc2)CC1C` (centres unmarked) [Compound 111, 1-acetyl-6-[(4-isopropylcarbonyl)piperazino]-4-[(4-methanesulfonylaminophenyl)amino]-2-methyl-1,2,3,4-tetrahydroquinoline]: the activity at 6 µM was determined as 46%.
Regarding `CC(=O)N1c2ccc(-c3nnn[nH]3)cc2C(Nc2ccc(Cl)cc2)CC1C` (centres unmarked) [Compound 119, 1-acetyl-4-[(4-chlorophenyl)amino]-2-methyl-6-(1H-tetrazol-5-yl)-1,2,3,4-tetrahydroquinoline], the activity at 6 µM worked out at 124%.
The same measure, in the same setting: to `CC(=O)N1c2cc(N3CCOCC3)ccc2C(Nc2ccc(Cl)cc2)CC1C` (centres unmarked) [Compound 44, 1-acetyl-4-[(4-chlorophenyl)amino]-2-methyl-7-morpholino-1,2,3,4-tetrahydroquinoline] belongs 162%; to `CCOC(=O)Cc1ccc(NC2CC(C)N(C(C)=O)c3ccc(F)cc32)cc1` (centres unmarked) [Compound 122, 1-acetyl-4-[(4-ethoxycarbonylmethylphenyl)amino]-6-fluoro-2-methyl-1,2,3,4-tetrahydroquinoline], 213%.
Consider `CC(=O)N1c2ccccc2[C@H](Nc2ccc(Cc3ccccc3)cc2)C[C@@H]1C` (relative stereo) [Compound 112, cis-1-acetyl-4-[(4-benzylphenyl)amino]-2-methyl-1,2,3,4-tetrahydroquinoline], for which the activity at 6 µM came out at 139%.
Consider `CC(=O)N1c2ccc(C(=O)O)cc2C(Nc2ccc(F)cc2)CC1C` (centres unmarked) [Compound 100, 1-acetyl-4-[(4-fluorophenyl)amino]-2-methyl-1,2,3,4-tetrahydroquinoline-6-carboxylic acid], for which the activity at 6 µM was 105%.
Still for that read-out and setting: the value for `CCOC(=O)c1ccc2c(c1)C(Nc1ccc(NS(C)(=O)=O)cc1)CC(C)N2C(C)=O` (centres unmarked) [Compound 101, ethyl 1-acetyl-4-[(4-methanesulfonylaminophenyl)amino]-2-methyl-1,2,3,4-tetrahydroquinoline-6-carboxylate] was 508%; that for `CC(=O)N1c2cc(F)ccc2[C@H](Nc2cccc(F)c2)C[C@@H]1C` (relative stereo) [Compound 58, cis-1-acetyl-7-fluoro-4-[(3-fluorophenyl)amino]-2-methyl-1,2,3,4-tetrahydroquinoline] was 107%.
With `CC(=O)N1c2ccc(N3CCN(C(=O)C(C)C)CC3)cc2C(Nc2ccc(Cl)cc2)CC1C` (centres unmarked) [Compound 84, 1-acetyl-4-[(4-chlorophenyl)amino]-6-[(4-isopropylcarbonyl)piperazino]-2-methyl-1,2,3,4-tetrahydroquinoline], the activity at 6 µM was 286%.
With `CC(=O)N1c2ccccc2C(Oc2ccc(N)cc2)CC1C` (centres unmarked) [Compound 68, 1-acetyl-4-(4-aminophenoxy)-2-methyl-1,2,3,4-tetrahydroquinoline], the activity at 6 µM was found to be 154%.
Same read-out and setting: the value for `CC(=O)N1c2ccc(N3CC(C)OC(C)C3)cc2C(Nc2ccc(NS(C)(=O)=O)cc2)CC1C` (stereo not drawn) [Compound 110, 1-acetyl-6-[cis-2,6-dimethylmorpholin-4-yl]-4-[(4-methanesulfonylaminophenyl)amino]-2-methyl-1,2,3,4-tetrahydroquinoline.2 hydrochloride] was 211%.
Still for that read-out and setting: to `CC(=O)N1CCN(c2ccc3c(c2)C(Nc2ccc(N4CCOCC4)cc2)CC(C)N3C(C)=O)CC1` (stereo not drawn) [Compound 94, cis-1-acetyl-6-[(4-acetyl)piperazino]-2-methyl-4-[(4-morpholinophenyl)amino]-1,2,3,4-tetrahydroquinoline.3 hydrochloride] belongs 199%; to `COC(=O)c1cc(NC2CC(C)N(C(C)=O)c3ccccc32)ccc1O` (centres unmarked) [Compound 108, 1-acetyl-4-[(4-hydroxy-3-methoxycarbonylphenyl)amino]-2-methyl-1,2,3,4-tetrahydroquinoline.hydrochloride], 399%; to `COc1ccc2c(c1)C(Nc1ccc(F)cc1)CC(C)N2C(C)=O` (centres unmarked) [Compound 37, 1-acetyl-4-[(4-fluorophenyl)amino]-2-methyl-6-methoxy-1,2,3,4-tetrahydroquinoline], 494%.
As to `CC(=O)N1c2ccc(N3CC(C)OC(C)C3)cc2C(Nc2ccc(Cl)cc2)CC1C` (stereo not drawn) [Compound 83, 1-acetyl-4-[(4-chlorophenyl)amino]-6-[(cis-3,5-dimethyl)morpholino]-2-methyl-1,2,3,4-tetrahydroquinoline], the activity at 6 µM came out at 282%.
Regarding `CC(=O)N1c2ccccc2C(Oc2ccc([N+](=O)[O-])cc2)CC1C` (centres unmarked) [Compound 67, 1-acetyl-2-methyl-4-(4-nitrophenoxy)-1,2,3,4-tetrahydroquinoline], the activity at 6 µM came out at 119%.

The values are drawn from US20130172345A1, “1-ACYL-4-(PHENOXY, BENZYLOXY, OR PHENYLAMINO)-1,2,3,4-TETRAHYDROQUINOLINE DERIVATIVES” (KOWA COMPANY, LTD., priority 2007, published 2013).
